In ChEMBL document CHEMBL5096216, “Rational Design, Synthesis, and Biological Evaluation of Novel S1PR2 Antagonists for Reversing 5-FU-Resistance in Colorectal Cancer” (J Med Chem, 2022):

These compounds were tested against Sphingosine 1-phosphate receptor 2 (Homo sapiens, UniProt O95136) (assay: Binding affinity to S1PR2 (unknown origin) assessed as dissociation constant by surface plasmon resonance analysis).
Chain of Sphingosine 1-phosphate receptor 2 (O95136 whole entry): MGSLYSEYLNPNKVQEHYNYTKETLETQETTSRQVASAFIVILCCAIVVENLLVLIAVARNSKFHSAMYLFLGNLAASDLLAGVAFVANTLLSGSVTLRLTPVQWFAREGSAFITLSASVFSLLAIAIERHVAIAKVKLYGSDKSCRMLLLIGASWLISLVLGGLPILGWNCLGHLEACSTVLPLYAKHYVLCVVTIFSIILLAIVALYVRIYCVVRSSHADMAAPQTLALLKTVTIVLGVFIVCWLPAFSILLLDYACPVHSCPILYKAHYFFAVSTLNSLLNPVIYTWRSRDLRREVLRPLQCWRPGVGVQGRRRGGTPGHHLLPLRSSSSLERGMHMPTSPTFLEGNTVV

| Kd [nM] | Structure (SMILES) |
| --- | --- |
| 6.62 | CCC(CC)CC1(O)CCN(C(=O)Nc2cc(Oc3ccc(F)cc3)cc(Oc3ccc(C(=O)N(C)C)cc3)c2)CC1 |
| 4.15 | CCC(CC)CC1(O)CCN(C(=O)Nc2cc(Oc3ccc(F)cc3)cc(Oc3ccc(C(=O)NC)cc3)c2)CC1 |
| > 1000 | CCC(CC)CC1(O)CCN(C(=O)Nc2cc(Oc3ccc(F)cc3)cc(Oc3ccc(S(N)(=O)=O)cc3)c2)CC1 |
| > 1000 | CCC(CC)CN1CCN(C(=O)Nc2cc(Oc3ccc(F)cc3)cc(Oc3ccc(C(=O)OC)cc3)c2)CC1 |
| 88.5 | CCC(CC)CN1CCN(C(=O)Nc2cc(Oc3ccc(F)cc3)cc(Oc3ccc(C(N)=O)cc3)c2)CC1 |
| 66.9 | O=C(Nc1cc(Oc2ccncc2)cc(Oc2ccc(F)cc2)c1)N1CCC(O)(c2ccc(Cl)cc2)CC1 |
| > 1000 | CCC(CC)CN1CC2CN(C(=O)Nc3cc(Oc4ccc(F)cc4)cc(Oc4ccc(C(=O)NC)cc4)c3)CC2C1 (configuration not stated) |
| > 1000 | CC(C)(C)OC(=O)NC1CCN(C(=O)Nc2cc(Oc3ccncc3)cc(Oc3ccc(F)cc3)c2)CC1 |
| > 1000 | CCC(CC)CN1CCN(C(=O)Nc2cc(Oc3ccc(F)cc3)cc(Oc3ccc(C(=O)N4CCCCCC4)cc3)c2)CC1 |
| > 1000 | CNC(=O)c1ccc(Oc2cc(NC(=O)N3CCN(C(=O)Cc4cccc(OC)c4)CC3)cc(Oc3ccc(F)cc3)c2)cc1 |
| 12.7 | CCC(CC)CN1CCN(C(=O)Nc2cc(Oc3ccc(F)cc3)cc(Oc3ccc(C(=O)NC4CCCCC4)cc3)c2)CC1 |
| > 1000 | CNC(=O)c1ccc(Oc2cc(NC(=O)N3CCN(Cc4ccc(F)cc4)CC3)cc(Oc3ccc(F)cc3)c2)cc1 |
| 7.48 | O=C(Nc1cc(Oc2ccc(F)cc2)cc(Oc2ccc(F)cc2)c1)Nc1cc(Cl)nc(Cl)c1 |
| > 1000 | C#CCNC(=O)c1ccc(Oc2cc(NC(=O)N3CCN(CC(CC)CC)CC3)cc(Oc3ccc(F)cc3)c2)cc1 |
| > 1000 | CCC(CC)CN1CCCN(C(=O)Nc2cc(Oc3ccc(F)cc3)cc(Oc3ccc(C(=O)NC)cc3)c2)CC1 |
| > 1000 | CCC(CC)CN1CCN(C(=O)Nc2cc(Oc3ccc(F)cc3)cc(Oc3ccc(C(=O)N4CCCCC4)cc3)c2)CC1 |

| Kd [nM] | Structure (SMILES) |
| --- | --- |
| 198 | CCC(CC)CC1(O)CCN(C(=O)Nc2cc(Oc3ccc(F)cc3)cc(Oc3ccc(C(N)=O)cc3)c2)CC1 |
| 29.2 | CNC(=O)c1ccc(Oc2cc(NC(=O)N3CCN(C(=O)c4ccc5ccccc5c4)CC3)cc(Oc3ccc(F)cc3)c2)cc1 |
| 9.44 | CNC(=O)c1ccc(Oc2cc(NC(=O)Nc3cc(Cl)nc(Cl)c3)cc(Oc3ccc(F)cc3)c2)cc1 |
| > 1000 | CNC(=O)c1ccc(Oc2cc(NC(=O)N3CCN(c4ccc(C(F)(F)F)cc4)CC3)cc(Oc3ccc(F)cc3)c2)cc1 |
| 55.6 | CCC(CC)CN1CCN(C(=O)Nc2cc(Oc3ccc(F)cc3)cc(Oc3ccc(C(=O)N(C)C)cc3)c2)CC1 |
| 94.3 | CNC(=O)c1ccc(Oc2cc(NC(=O)N3CCN(C(=O)c4ccc(F)cc4)CC3)cc(Oc3ccc(F)cc3)c2)cc1 |
| 5.16 | CNC(=O)c1ccc(Oc2cc(NC(=O)N3CCC(O)(c4ccc(Cl)cc4)CC3)cc(Oc3ccc(F)cc3)c2)cc1 |
| > 1000 | CCC(CC)CN1CCN(C(=O)Nc2cc(Oc3ccc(F)cc3)cc(Oc3ccc(C(=O)N4CCOCC4)cc3)c2)CC1 |
| 7.23 | CCNC(=O)c1ccc(Oc2cc(NC(=O)N3CCN(CC(CC)CC)CC3)cc(Oc3ccc(F)cc3)c2)cc1 |
| > 1000 | CNC(=O)c1ccc(Oc2cc(NC(=O)N3CCN(S(=O)(=O)c4ccc(C)cc4)CC3)cc(Oc3ccc(F)cc3)c2)cc1 |
| 8.76 | O=C(Nc1cc(Oc2ccncc2)cc(Oc2ccc(F)cc2)c1)Nc1cc(Cl)nc(Cl)c1 |
| > 1000 | CNC(=O)c1ccc(Oc2cc(NC(=O)N3CCN(c4cccc(OC)c4)CC3)cc(Oc3ccc(F)cc3)c2)cc1 |
| 21.5 | CNC(=O)c1ccc(Oc2cc(NC(=O)N3CCN(c4ccc(OC)cc4)CC3)cc(Oc3ccc(F)cc3)c2)cc1 |
| 1.15 | CNC(=O)c1ccc(Oc2cc(NC(=O)N3CCN(C(=O)OC(C)(C)C)CC3)cc(Oc3ccc(F)cc3)c2)cc1 |
| > 1000 | CNC(=O)c1ccc(Oc2cc(NC(=O)N3CCN(c4ccc(Cl)cc4)CC3)cc(Oc3ccc(F)cc3)c2)cc1 |

| Structure (SMILES) | Kd [nM] |
| --- | --- |
| O=C(Nc1cc(Cl)nc(Cl)c1)Nc1cc(Cl)nc(Cl)c1 | 13.2 |
